# Biological target: T1, Recombinant human BRD4 containing dual bromodomains (BRD4-BD12 (1-477)) (Homo sapiens, UniProt O60885)
# T1 construct: Recombinant human BRD4 containing dual bromodomains (BRD4-BD12 (1-477)); made in house; host or cells: E. coli BL21-CodonPlus (DE3), modified pET vector
# Assay: BRD4 Alphascreen binding assay
# In short: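 AlphaScreen proximity between Ni-chelate-bound BRD4-BD12 (1-477) and streptavidin-captured H4 K5/K8/K12/K16-acetyl peptide measured after 1 h room-temperature compound incubation and 30 min with 7.5 μg/ml beads. Buffer: 50 mM HEPES pH 7.5, 50 mM NaCl, 0.01% BSA, 0.01% Triton X-100; data plate-normalized and four-parameter fit for IC50.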
row,SMILES,IC50 [µM]
1,"CCOc1cc(C(=O)O)cc(OCC)c1-n1cc(-c2ccc(OC)cc2F)c2ncc(-c3c(C)noc3C)cc21 [P-0194, 4-(6-(3,5-dimethylisoxazol-4-yl)-3-(2-fluoro-4-methoxyphenyl)-1H-pyrrolo[3,2-b]pyridin-1-yl)-3,5-diethoxybenzoic acid]",1 to 8
2,"CCOc1cc(C(=O)O)cc(OCC)c1-n1cc(-c2cnn(C)c2)c2ncc(-c3c(C)noc3C)cc21 [P-0195, 4-(6-(3,5-dimethylisoxazol-4-yl)-3-(1-methyl-1H-pyrazol-4-yl)-1H-pyrrolo[3,2-b]pyridin-1-yl)-3,5-diethoxybenzoic acid]",1 to 8
3,"Cc1noc(C)c1-c1cnc2c(-c3ccccc3)cn(-c3ccc(C(=O)O)cc3OC(F)(F)F)c2c1 [P-0196, 4-(6-(3,5-dimethylisoxazol-4-yl)-3-phenyl-1H-pyrrolo[3,2-b]pyridin-1-yl)-3-(trifluoromethoxy)benzoic acid]",1 to 8
4,"Cc1noc(C)c1-c1cnc2c(c1)c(-c1c(Cl)cc(C(=O)O)cc1Cl)cn2[C@@H](C)c1ccccn1 [P-0197, (S)-3,5-dichloro-4-(5-(3,5-dimethylisoxazol-4-yl)-1-(1-(pyridin-2-yl)ethyl)-1H-pyrrolo[2,3-b]pyridin-3-yl)benzoic acid]",8 to 1000
5,"Cc1noc(C)c1-c1cnc2c(c1)c(-c1c(Cl)cc(C(=O)O)cc1OC(F)(F)F)cn2C(C1CC1)C1CC1 [P-0198, 3-chloro-4-(1-(dicyclopropylmethyl)-5-(3,5-dimethylisoxazol-4-yl)-1H-pyrrolo[2,3-b]pyridin-3-yl)-5-(trifluoromethoxy)benzoic acid]",8 to 1000
6,"Cc1noc(C)c1-c1cnc2c(c1)c(-c1ccc(C(=O)O)cc1OC(F)(F)F)cn2C(CC#N)C1CC1 (stereo not shown) [P-0199, 4-(1-(2-cyano-1-cyclopropylethyl)-5-(3,5-dimethylisoxazol-4-yl)-1H-pyrrolo[2,3-b]pyridin-3-yl)-3-(trifluoromethoxy)benzoic acid]",8 to 1000
7,"Cc1noc(C)c1-c1cnc2c(c1)c(-c1ccc(C(=O)O)cc1OC(F)(F)F)cn2C(CC#N)C1CCCC1 (stereo not shown) [P-0200, 4-(1-(2-cyano-1-cyclopentylethyl)-5-(3,5-dimethylisoxazol-4-yl)-1H-pyrrolo[2,3-b]pyridin-3-yl)-3-(trifluoromethoxy)benzoic acid]",8 to 1000
8,"CCOc1cc(C(=O)O)cc(OCC)c1-n1cc(-c2cnc(OC)nc2)c2ncc(-c3c(C)noc3C)cc21 [P-0201, 4-(6-(3,5-dimethylisoxazol-4-yl)-3-(2-methoxypyrimidin-5-yl)-1H-pyrrolo[3,2-b]pyridin-1-yl)-3,5-diethoxybenzoic acid]",1 to 8
9,"Cc1noc(C)c1-c1cnc2c(c1)c(-c1ccc(C(=O)O)cc1OC(F)(F)F)cn2S(=O)(=O)C1CC1 [P-0202, 4-(1-(cyclopropylsulfonyl)-5-(3,5-dimethylisoxazol-4-yl)-1H-pyrrolo[2,3-b]pyridin-3-yl)-3-(trifluoromethoxy)benzoic acid]",1 to 8
10,"Cc1noc(C)c1-c1cnc2c(c1)c(-c1ccc(C(=O)O)cc1OC(F)(F)F)cn2-c1ccnc(C(C)C)c1 [P-0203, 4-(5-(3,5-dimethylisoxazol-4-yl)-1-(2-isopropylpyridin-4-yl)-1H-pyrrolo[2,3-b]pyridin-3-yl)-3-(trifluoromethoxy)benzoic acid]",1 to 8
11,"Cc1noc(C)c1-c1cnc2c(c1)c(-c1ccc(C(=O)O)cc1OC(F)(F)F)cn2-c1cnccc1C#N [P-0204, 4-(1-(4-cyanopyridin-3-yl)-5-(3,5-dimethylisoxazol-4-yl)-1H-pyrrolo[2,3-b]pyridin-3-yl)-3-(trifluoromethoxy)benzoic acid]",8 to 1000
12,"CCOc1cc(C(=O)O)cc(F)c1-n1cc(-c2ccccc2)c2ncc(-c3c(C)noc3C)cc21 [P-0205, 4-(6-(3,5-dimethylisoxazol-4-yl)-3-phenyl-1H-pyrrolo[3,2-b]pyridin-1-yl)-3-ethoxy-5-fluorobenzoic acid]",1 to 8
13,"CCOc1cccc(C#N)c1-n1cc(-c2ccccc2)c2ncc(-c3c(C)noc3C)cc21 [P-0206, 2-(6-(3,5-dimethylisoxazol-4-yl)-3-phenyl-1H-pyrrolo[3,2-b]pyridin-1-yl)-3-ethoxybenzonitrile]",8 to 1000
14,"Cc1noc(C)c1-c1cnc2c(-c3ccccc3)cn(-c3c(Cl)cccc3C#N)c2c1 [P-0207, 3-chloro-2-(6-(3,5-dimethylisoxazol-4-yl)-3-phenyl-1H-pyrrolo[3,2-b]pyridin-1-yl)benzonitrile]",1 to 8
15,"CCOc1cc(C(=O)O)cc(OCC)c1-n1cc(C2=CCC(F)(F)CC2)c2ncc(-c3c(C)noc3C)cc21 [P-0208, 4-(3-(4,4-difluorocyclohex-1-en-1-yl)-6-(3,5-dimethylisoxazol-4-yl)-1H-pyrrolo[3,2-b]pyridin-1-yl)-3,5-diethoxybenzoic acid]",1 to 8
16,"CCOc1cc(C(=O)O)cc(OCC)c1-n1cc(-c2ccc(F)c(Cl)c2)c2ncc(-c3c(C)noc3C)cc21 [P-0209, 4-(3-(3-chloro-4-fluorophenyl)-6-(3,5-dimethylisoxazol-4-yl)-1H-pyrrolo[3,2-b]pyridin-1-yl)-3,5-diethoxybenzoic acid]",1 to 8

row,SMILES,IC50 [µM]
1,"CCOc1cc(C(=O)O)cc(OCC)c1-n1cc(CC2CCC2)c2ncc(-c3c(COC)noc3C)cc21 [P-0210, 4-(3-(cyclobutylmethyl)-6-(3-(methoxymethyl)-5-methylisoxazol-4-yl)-1H-pyrrolo[3,2-b]pyridin-1-yl)-3,5-diethoxybenzoic acid]",8 to 1000
2,"Cc1cnccc1-n1cc(-c2ccc(C(=O)O)cc2OC(F)(F)F)c2cc(-c3c(C)noc3C)cnc21 [P-0211, 4-(5-(3,5-dimethylisoxazol-4-yl)-1-(3-methylpyridin-4-yl)-1H-pyrrolo[2,3-b]pyridin-3-yl)-3-(trifluoromethoxy)benzoic acid]",1 to 8
3,"Cc1noc(C)c1-c1cnc2c(c1)c(-c1ccc(C(=O)O)cc1OC(F)(F)F)cn2C1CCS(=O)(=O)CC1 [P-0212, 4-(5-(3,5-dimethylisoxazol-4-yl)-1-(1,1-dioxidotetrahydro-2H-thiopyran-4-yl)-1H-pyrrolo[2,3-b]pyridin-3-yl)-3-(trifluoromethoxy)benzoic acid]",8 to 1000
4,"Cc1noc(C)c1-c1cnc2c(c1)c(-c1ccc(C(=O)O)cc1OC(C)C)cn2C(C1CC1)C1CC1 [P-0213, 4-(1-(dicyclopropylmethyl)-5-(3,5-dimethylisoxazol-4-yl)-1H-pyrrolo[2,3-b]pyridin-3-yl)-3-isopropoxybenzoic acid]",8 to 1000
5,"Cc1noc(C)c1-c1cnc2c(c1)c(-c1ccc(C(=O)O)cc1OCC(F)(F)F)cn2C(C1CC1)C1CC1 [P-0214, 4-(1-(dicyclopropylmethyl)-5-(3,5-dimethylisoxazol-4-yl)-1H-pyrrolo[2,3-b]pyridin-3-yl)-3-(2,2,2-trifluoroethoxy)benzoic acid]",8 to 1000
6,"Cc1noc(C)c1-c1cnc2c(c1)c(-c1ccc(C(=O)O)cc1OC(F)(F)F)cn2-c1ncccc1C#N [P-0215, 4-(1-(3-cyanopyridin-2-yl)-5-(3,5-dimethylisoxazol-4-yl)-1H-pyrrolo[2,3-b]pyridin-3-yl)-3-(trifluoromethoxy)benzoic acid]",1 to 8
7,"Cc1noc(C)c1-c1cnc2c(c1)c(-c1ccc(C(=O)O)cc1OC(F)(F)F)cn2-c1ncccc1C#CC1CC1 [P-0216, 4-(1-(3-(cyclopropylethynyl)pyridin-2-yl)-5-(3,5-dimethylisoxazol-4-yl)-1H-pyrrolo[2,3-b]pyridin-3-yl)-3-(trifluoromethoxy)benzoic acid]",8 to 1000
8,"CCOc1cc(C(=O)O)cc(OCC)c1-n1cc(-c2ccc(C#N)cc2F)c2ncc(-c3c(C)noc3C)cc21 [P-0217, 4-(3-(4-cyano-2-fluorophenyl)-6-(3,5-dimethylisoxazol-4-yl)-1H-pyrrolo[3,2-b]pyridin-1-yl)-3,5-diethoxybenzoic acid]",1 to 8
9,"CCOc1cc(C(=O)O)cc(OCC)c1-n1cc(-c2ccc(C(=O)NC3CC3)cc2)c2ncc(-c3c(C)noc3C)cc21 [P-0218, 4-(3-(4-(cyclopropylcarbamoyl)phenyl)-6-(3,5-dimethylisoxazol-4-yl)-1H-pyrrolo[3,2-b]pyridin-1-yl)-3,5-diethoxybenzoic acid]",1 to 8
10,"COC(=O)c1cc(OC)c(-n2cc(-c3ccccc3)c3ncc(-c4c(C)noc4C)cc32)c(OC)c1 [P-0219, methyl 4-(6-(3,5-dimethylisoxazol-4-yl)-3-phenyl-1H-pyrrolo[3,2-b]pyridin-1-yl)-3,5-dimethoxybenzoate]",1 to 8
11,"COc1cc(C(=O)O)cc(OC)c1-n1cc(-c2ccccc2)c2ncc(-c3c(C)noc3C)cc21 [P-0220, 4-(6-(3,5-dimethylisoxazol-4-yl)-3-phenyl-1H-pyrrolo[3,2-b]pyridin-1-yl)-3,5-dimethoxybenzoic acid]",0.0001 to 1
12,"COc1cccc(OC)c1-n1cc(-c2ccccc2)c2ncc(-c3c(C)noc3C)cc21 [P-0221, 4-(1-(2,6-dimethoxyphenyl)-3-phenyl-1H-pyrrolo[3,2-b]pyridin-6-yl)-3,5-dimethylisoxazole]",8 to 1000
13,"CCOc1cc(C(=O)O)cc(OCC)c1-n1cc(-c2ccnc(F)c2)c2ncc(-c3c(C)noc3C)cc21 [P-0222, 4-(6-(3,5-dimethylisoxazol-4-yl)-3-(2-fluoropyridin-4-yl)-1H-pyrrolo[3,2-b]pyridin-1-yl)-3,5-diethoxybenzoic acid]",1 to 8
14,"Cc1noc(C)c1-c1cnc2c(c1)c(-c1ccc(C(=O)O)cc1OC(F)(F)F)cn2-c1ccccc1F [P-0223, 4-(5-(3,5-dimethylisoxazol-4-yl)-1-(2-fluorophenyl)-1H-pyrrolo[2,3-b]pyridin-3-yl)-3-(trifluoromethoxy)benzoic acid]",1 to 8
15,"CCOc1cccc(Cl)c1-n1cc(-c2ccccc2)c2ncc(-c3c(C)noc3C)cc21 [P-0224, 4-(1-(2-chloro-6-ethoxyphenyl)-3-phenyl-1H-pyrrolo[3,2-b]pyridin-6-yl)-3,5-dimethylisoxazole]",1 to 8

# Source: US11446287B2, “Compounds and methods for EP300 or CBP modulation and indications therefor” (Opna Immuno-Oncology SA, priority 2019, dated 2022)
